Experimental data reported in publication doi:10.1101/2024.12.16.628703v1 (bioRxiv, 2024).
Marks after values point to notes of the source that are not given here.

Assays:
[1] = test system: G. oceanica; assay: CPP translocation by flow cytometry; assay type: cell-based, Gephyrocapsa oceanica; settings: for increase in median fluorescence per increase in concentration of 1 µM: regression of titer data, FITC-positive population; for increase in median fluorescence per increase in concentration of 1 µM / regression equation, Median Fluorescence versus CPP concentration: separate experiment; for regression equation, Median Fluorescence versus CPP concentration: titer data 20-320 µM, flow cytometry ex 488 / em 525 nm
[2] = test system: I. galbana; assay: CPP translocation by flow cytometry; assay type: cell-based, Isochrysis galbana; settings: for translocation (FITC-positive cells) / percentage of cells penetrated (FITC-positive): DOE, trypsin wash; for translocation (FITC-positive cells): FITC-Ahx-CPP 2 µM; for translocation (FITC-positive cells) / percentage of cells penetrated (FITC-positive) / FITC-positive cells achieved over the range tested / FITC-positive cells: flow cytometry; for percentage of cells penetrated (FITC-positive): FITC-Ahx-CPP 10 µM; for FITC-positive cells achieved over the range tested / FITC-positive cells: titer experiment, single experiment; for FITC-positive cells achieved over the range tested: 20 to 320 µM CPP
[3] = test system: E. huxleyi; assay: CPP translocation by flow cytometry; assay type: cell-based, Emiliania huxleyi; settings: for FITC-positive cells / FITC-positive cells achieved over the range tested: titer experiment, flow cytometry, average of 2 experiments; for FITC-positive cells achieved over the range tested: 20 to 320 µM CPP
[4] = test system: I. galbana; assay: Viability / cell proliferation after CPP transfection; assay type: cell-based, Isochrysis galbana; settings: growth curve 14 days
[5] = test system: animal cells; settings: ref [7],[8],[23]; cited from earlier work
[6] = test system: algae; settings: ref [7],[8],[23]; cited from earlier work
[7] = titer data 20-320 µM, separate experiment, flow cytometry ex 488 / em 525 nm

Row | Sequence | increase in median fluorescence per increase in concentration of 1 µM [1] [RFU] | regression equation, Median Fluorescence versus CPP concentration [1] | translocation (FITC-positive cells) [2] | percentage of cells penetrated (FITC-positive) [2] | FITC-positive cells achieved over the range tested [2] [%] | FITC-positive cells ([3]; 20 µM CPP) | FITC-positive cells ([3]; 160 µM CPP) | FITC-positive cells ([3]; 320 µM CPP) | FITC-positive cells achieved over the range tested [3] | further results
1 | GRKKRRQRRRPPQ [TAT, transactivating transcriptional activator] | 53 | 10953 + 52.48 * TAT concentration | do not translocate | do not translocate | < 20 | less than 20% | over 40% | over 60% | < 80% | regression equation, Median Fluorescence versus CPP concentration [2, 7]: 16534 + 11.73 * TAT concentration; regression equation, Median Fluorescence versus CPP concentration [3, 7]: 15145 + 35.47 * TAT concentration
2 | LLIILRRRIRKQAHAHSK [pVEC, murine vascular endothelial cadherin] | 184 | 16133 + 184.1 * pVEC concentration |  | 39% | 80 | > 80% | more than 90% | over 95% | more than 80% | proliferation of cells sorted for high FITC fluorescence ([4]; 160 and 320 µM pVEC, sorted by FACS): proliferation of viable cells; viability after CPP treatment ([4]; pVEC at 20 µM, sorted cells): apparent decrease in viability; optimal concentration for translocation, irrespective of viability ([1]; titer experiment 20-320 µM): 160 µM; percent-positive achieved over the range tested ([1]; titer experiment, 20 to 320 µM CPP, flow cytometry, average of 2 experiments): more than 80%; optimal concentration for translocation, irrespective of viability ([2]; titer experiment 20-320 µM): 80 µM; FITC-positive cells ([2]; 20 µM CPP): less than 20%; FITC-positive cells ([2]; 80 µM CPP): over 90%; FITC-positive cells ([2]; 160 µM CPP): approximately 85%; effect on median fluorescence with rising concentration ([3]; titer experiment 20-320 µM): reaches a plateau from 160 to 320 µM; optimal concentration for translocation, irrespective of viability ([3]; titer experiment 20-320 µM): 160 µM
3 | RQIKIWFQNRRMKWKK [pAntp, antennapedia homeodomain] |  |  | do not translocate |  |  |  |  |  |  | cytotoxicity at concentrations as low as [5]: 40 µM; cytotoxicity at concentrations as low as [6]: 10 µM
